From article PMC6906472, “Purification and biological activity of natural variants synthesized by tridecaptin M gene cluster and in vitro drug-kinetics of this antibiotic class” (Scientific Reports, 2019) come the findings set out here.

Data set [1] concerns A. baumannii ATCC 19606. The note with it: ATCC 19606. The protocol:
(§1) MICs for all the compounds were determined by broth microdilution assay, according to CLSI guidelines[16] as described previously. Haemolysis experiments were performed with fresh rabbit RBCs[11]. All the compounds were tested at a concentration of 128 µg/ml. To obtain rabbit blood, the experiments and the protocols were in accordance with the ethical standards of the Institutional Animal Ethics Committee (IAEC) of the Institute of Microbial Technology approved (Approval no. IAEC/17/11) by Committee for the Purpose of Control And Supervision of Experiments on Animals (CPCSEA, Government of India).

In the next data set the test system is E. coli CF-23 (mcr-1). The protocol: as §1
The test system of data set [2] is K. pneumoniae AH-16 (Col-R). The protocol: as §1
Data set [3] relates to K. pneumoniae AH-3 (Col-R). How it is done:
as §1

In data set [4] the test system is K. pneumoniae ATCC 700603. The protocol: as §1
The subject of data set [5] is K. pneumoniae GMCH 13. The protocol: as §1
The test system of data set [6] is K. pneumoniae GMCH 15. How it is done:
as §1

In another data set the test system is K. pneumoniae P3R (M1-R). The note with it: broth microdilution, CLSI guidelines; M1-resistant mutant of ATCC 700603. The protocol:
as §1
(In broth dilution the organism is exposed to a series of concentrations in liquid medium.)

For data set [7], the system named is P. aeruginosa ATCC 27853. As to conditions: ATCC 27853. How it is done: as §1
The test system of data set [8] is Proteus mirabilis MTCC 1429. How it is done:
as §1

Data set [9] has as its system Serratia marcescens MTCC 97. How it is done: as §1
Data set [10] concerns A. baumannii ATCC 19606. Kind of data set: microbe, parasite or virus in culture. How it is done: (§2) Acinetobacter baumannii ATCC 19606, Pseudomonas aeruginosa ATCC 27853, K. pneumoniae ATCC 700603, K. pneumoniae P3R, K. pneumoniae GMCH 13 and K. pneumoniae GMCH 15 were grown in CA-MHB and adjusted to ~4 × 10^5 CFU/ml. 100 µl of fresh CA-MHB containing carbonyl cyanide m-chlorophenyl hydrazine (CCCP) or phenylalanine-arginine beta-naphthylamide (PAβN) (at a final concentration of their 1/4th of MIC or 1/8th of MIC) was added to the wells of a 96-well flat bottom plate. Tridecaptin M was diluted in a 2-fold manner. 100 µl of culture was added and the plates were incubated for 16 to 18 h at 37 °C and observed for MICs. The fold modulation in MICs of tridecaptin M was calculated by comparing the results in the presence or absence of CCCP and PAβN.

In data set [11] the test system is K. pneumoniae GMCH 13. Kind of data set: microbe, parasite or virus in culture. The protocol: as §2
Data set [12] relates to K. pneumoniae GMCH 15. Kind of data set: microbe, parasite or virus in culture. The protocol: as §2
The test system of data set [13] is K. pneumoniae P3R (Tri-M Resistant). Description: microbe, parasite or virus in culture. How it is done: as §2
The subject of data set [14] is P. aeruginosa ATCC 27853. Description: microbe, parasite or virus in culture. As to conditions: ATCC 27853. How it is done:
as §2

Data set [15] relates to outer membrane of A. baumannii ATCC 19606, P. aeruginosa ATCC 27853, K. pneumoniae ATCC 700603, P3R. Kind of data set: Outer membrane permeabilization (NPN assay). The data set is classed as cell-based. As to conditions: peptide 4 µg/ml and 8 µg/ml; triplicate, three biological repeats. How it is done:
For outer membrane permeabilization study, NPN dye was used as described previously. A. baumannii ATCC 19606, P. aeruginosa ATCC 27853, K. pneumoniae ATCC 700603 were treated with two different concentrations of the peptide (4 µg/ml and 8 µg/ml). To check alteration in the cytoplasmic membrane potential, DiSC3(5) probe was used[11].

A short description of data set [16]: Order of elution in RP-HPLC (hydrophobicity). The data set is classed as physicochemical. The note with it: C18, acetonitrile/water with 0.075% TFA, in words. How it is done: The strain M-152 was inoculated in 700 ml MHB in 2 L Erlenmeyer flask, and the crude fermentation extract preparation, ion-exchange chromatography and the first step of RP-HPLC were performed as described for tridecaptin M[11]. The peaks obtained in HPLC were assayed against K. pneumoniae using agar well diffusion method. The active peaks (Fig. 1) were purified by the second round of HPLC under different conditions, optimized for each compound. The mobile phase system for all the peaks consisted of solvent A as 20% acetonitrile in Milli-Q and solvent B as 100% acetonitrile. Both solvents contained 0.075% TFA. C18 column (Waters, XBridge, 10 mm × 250 mm, 5 µm, 130 Å) was used to purify the compounds. Following gradient was used for the resolution of different components; for P1, 8% B to 26% B in 30 min, for P3, 8% B to 25% B in 23 min, for P4, 8% B to 23% B in 22 min, for P5, 3% B to 21.5% B in 24 min, for P6, 10% B to 25% B in 25 min, for P7, 8% B to 28% B in 25 min, for P8, 8% B to 26% B in 23 min, for P10, 10% B to 28% B in 30 min, for P11, 10% B to 28% B in 31 min. In two to three min, the gradient was reversed to initial column conditions and was equilibrated for five to six min, before the next injection. Multiple injections were given to generate a sufficient quantity of each compound for further studies.

[17] abbreviates: ~4 × 10^5 CFU/ml, CA-MHB, 16 to 18 h, 37 °C.

Square brackets hold non-standard residues; d marks the D form. Peptide text beside a SMILES is read from it. * marks the point of attachment. X2 = CC[C@H](C)CCCC[C@@H](O)CC(=O)*; d(aIle) = CC[C@H](C)[C@@H](N)C(=O)O; X1 = CC[C@H](C)CCCCC(=O)*; dDab = NCC[C@@H](N)C(=O)O; Dab = NCC[C@H](N)C(=O)O

As to `CC[C@H](C)CCCCC(=O)NCC(=O)N[C@H](CCN)C(=O)NCC(=O)N[C@H](CO)C(=O)N[C@H](Cc1c[nH]c2ccccc12)C(=O)N[C@@H](CO)C(=O)N[C@@H](CCN)C(=O)N[C@H](CCN)C(=O)N[C@H](C(=O)N[C@@H](CCC(=O)O)C(=O)N[C@H](C(=O)N[C@@H](C(=O)N[C@@H](CO)C(=O)O)[C@@H](C)CC)[C@@H](C)CC)[C@@H](C)CC` [M1, tridecaptin M] (X1-G[dDab]G[dS][dW]S[Dab][dDab]IEI[d(aIle)]S-OH), the “Peptide MIC” value with A. baumannii ATCC 19606 [1] was determined as 64 µg/mL; with E. coli CF-23 (mcr-1) it was 4 µg/mL; in data set [2] it was 4 µg/mL; in [3], 4 µg/mL; in [4], 4 µg/mL; with K. pneumoniae GMCH 13 [5] it was 8 µg/mL. The “Peptide MIC” value is 16 µg/mL in the data set on K. pneumoniae GMCH 15 [6]; 64 µg/mL with K. pneumoniae P3R (M1-R); more than 128 µg/mL with P. aeruginosa ATCC 27853 [7]; more than 16 µg/mL in data set [8]; 8 µg/mL in [9]. Also, the “Intrinsic Activity; MIC” value in the data set on A. baumannii ATCC 19606 [10] (ATCC 19606) worked out at 64 µg/mL; in the data set on K. pneumoniae GMCH 13 [11] (GMCH 13), 8 µg/mL; with K. pneumoniae GMCH 15 [12] (GMCH 15), 16 µg/mL; in data set [13] (setting [17]) it was 64 µg/mL; in the data set with P. aeruginosa ATCC 27853 [14] it was 256 µg/mL. Moreover, the “MIC of peptide in the presence of PAβN” value worked out at 64 µg/mL in the data set with A. baumannii ATCC 19606 [10] (ATCC 19606); 8 µg/mL in the data set with K. pneumoniae GMCH 13 [11] (GMCH 13); 16 µg/mL in the data set on K. pneumoniae GMCH 15 [12] (GMCH 15); 64 µg/mL in data set [13] (PAβN at 1/4th MIC); 64 µg/mL in data set [13] (PAβN at 1/8th MIC); 256 µg/mL in the data set with P. aeruginosa ATCC 27853 [14]. In the data set with K. pneumoniae GMCH 13 [11] (GMCH 13), the FICI came out at 0.75. Further, the “MIC of peptide in the presence of CCCP” value in data set [13] (CCCP at 1/4th MIC) turned out to be 64 µg/mL; in [13] (CCCP at 1/8th MIC) it was 64 µg/mL; with P. aeruginosa ATCC 27853 [14] it was 256 µg/mL.

As to `CC[C@H](C)CCCC[C@@H](O)CC(=O)N[C@@H](C(=O)N[C@H](CCN)C(=O)NCC(=O)N[C@H](CO)C(=O)N[C@H](Cc1ccccc1)C(=O)N[C@@H](CO)C(=O)N[C@@H](CCN)C(=O)N[C@H](CCN)C(=O)N[C@@H](Cc1ccccc1)C(=O)N[C@@H](CCC(=O)O)C(=O)N[C@H](C(=O)N[C@@H](C(=O)N[C@@H](CO)C(=O)O)[C@@H](C)CC)[C@@H](C)CC)C(C)C` [M11] (X2-[dV][dDab]G[dS][dF]S[Dab][dDab]FEI[d(aIle)]S-OH; N-terminus and C-terminus assumed), the “Peptide MIC” value with E. coli CF-23 (mcr-1) is 1 µg/mL; in data set [2] it was 1 µg/mL; in data set [3] it was 1 µg/mL; in [4], 2 µg/mL; in the data set with P. aeruginosa ATCC 27853 [7] it was 8 µg/mL; in [8] it was 4 µg/mL. In addition, in data set [9], the “Peptide MIC” value was 4 µg/mL. In the data set with A. baumannii ATCC 19606 [10] (MIC with versus without CCCP), the “fold modulation (reduction) of MIC in the presence of CCCP” value was “four”. In addition, the “Intrinsic Activity; MIC” value worked out at 4 µg/mL with A. baumannii ATCC 19606 [10] (setting [17]), 4 µg/mL in the data set on K. pneumoniae GMCH 13 [11] (setting [17]) and 2 µg/mL with K. pneumoniae GMCH 15 [12] (setting [17]). For the same molecule, the “MIC of peptide in the presence of CCCP” value with K. pneumoniae GMCH 13 [11] (GMCH 13), in the data set on K. pneumoniae GMCH 15 [12] (CCCP at 1/4th MIC) and in the data set with K. pneumoniae GMCH 15 [12] (CCCP at 1/8th MIC) was 2 µg/mL in each case. The NPN uptake entry in data set [15] was “greater uptake of NPN, compared to M1”. The “hydrophobicity by order of elution in HPLC” value in data set [16] is given as “greater hydrophobicity”.
